Test system: secondary follicles (folliculogenesis)
Assay: In vitro follicle culture testing the influence of taxol on folliculogenesis and oocyte maturation
Format: cell-based, mouse
Conditions: secondary follicles scored after 13 days
Excerpt: Ovarian tissue is isolated from 12 to 14 days old F1 hybrids C57Bl/j6×CBAca mice and kept in a culture dish comprising Leibovitz's L15 medium with GlutaMAX I™ (Gibco BRL 31415-029) with 10% HIA FBS (Heat Inactivated Foetal Bovine Serum) and 0.1% penicillin-streptomycin-mix (Gibco BRL 3032908). The ovaries have to be freed of oviduct and fat.
Not all follicles in suspension from example 1 are suitable for follicle culture. To make sure that all follicles grow at approximately the same rate, the selected follicles should have a similar diameter. In this specific case, a diameter of between 100 and 130 μm is suitable and points to development of the follicle up to the early preantral (secondary) stage. […] FIG. 2b. Said follicles further comprise theca-interstitial cells 17, a basal membrane 19 and a zona pellucida 21. Follicles are observed under a stereomicroscope and measured under an inverted microscope. Suitable follicles are picked up using suitably arranged pasteur pipettes and transferred to a cryovial (for stocking, see example 3) or to a culture plate (for follicle culture, see example 4).
When starting from secondary follicles, one can start immediately with culture using the second medium. This medium will promote adhesion to the culture recipient surface. Culture medium is refreshed every four days. On day 12, the culture medium is refreshed using the third medium in stead of the second. This medium will cause the release of a mucified oocyte-cumulus complex from the follicle overnight, while the oocyte finalises maturation.
Cultures are done in 75 μl of culture medium. When refreshing medium, 30 μl of used medium is removed and 30 μl of fresh medium is added. Schematically, both procedures can be summarised as follows:
The same method is used as in example 4. Secondary follicles are used. […] All media used in the culture steps are constituted as follows:
The culture medium is refreshed every 4 days by removing 30 μl and addition of 30 μl of fresh medium.
After 13 days, follicles are scored on survival, mucification, presence of polar body (PB), and oocyte diameter.

[1] = Taxol 0.01 nM in all media (plates 3+4)
[2] = Taxol 0.1 nM in all media (plates 5+6)
[3] = Taxol 1 nM in all media (plates 7+8)
[4] = Taxol 10 nM in all media (plate 9)

**Q.** With CC(=O)O[C@H]1C(=O)[C@@]2(C)[C@H]([C@H](OC(=O)c3ccccc3)[C@]3(O)C[C@H](OC(=O)[C@H](O)[C@@H](NC(=O)c4ccccc4)c4ccccc4)C(C)=C1C3(C)C)[C@]1(OC(C)=O)CO[C@@H]1C[C@@H]2O [Taxol] as the molecule, how does the Mucification mean [1] read?
**A.** The Mucification mean was 100%.

**Q.** What about the “PB (presence of polar body) mean” value [1] of the same molecule?
**A.** Its value is 75%.

**Q.** And the Survival mean [1]?
**A.** The Survival mean was 87%.

**Q.** And the Mucification mean [2]?
**A.** The Mucification mean was 96%.

**Q.** And the “PB (presence of polar body) mean” value [2]?
**A.** Its value is 75%.

**Q.** What about the Survival mean [2] of the same molecule?
**A.** The Survival mean was 100%.

**Q.** And the Mucification mean [3]?
**A.** Its Mucification mean is 96%.

**Q.** And the “PB (presence of polar body) mean” value [3]?
**A.** Its value is 55%.

**Q.** What about the Survival mean [3] of the same molecule?
**A.** The Survival mean was 92%.

**Q.** And the Mucification mean [4]?
**A.** Its Mucification mean is 0.

**Q.** What about the “PB (presence of polar body) mean” value [4] of the same molecule?
**A.** The value was 0.

**Q.** What about the Survival mean [4] of the same molecule?
**A.** The Survival mean was 0%.
